{"source": "paper PMC5218480", "about": "(PLoS ONE, 2017)", "test_system": "MV-4-11 cells", "assay": "Gene expression microarray analysis (Affymetrix PrimeView) and GSEA", "format": "cell-based, human", "design": "RFU PODN (11730768_x_at) / Fold change /veh PODN (11730768_x_at) / RFU LINC00158 (11744669_a_at) / Fold change /veh LINC00158 (11744669_a_at) / RFU DUSP10 (11751237_a_at) / Fold change /veh DUSP10 (11751237_a_at) / RFU ID3 (11757404_x_at) / Fold change /veh ID3 (11757404_x_at) / RFU PLEKHG5 (11737974_s_at) / Fold change /veh PLEKHG5 (11737974_s_at) / RFU LRRC4B (11730491_at) / Fold change /veh LRRC4B (11730491_at) / RFU GIMAP4 (11747438_a_at) / Fold change /veh GIMAP4 (11747438_a_at) / RFU KRT8 (11758183_x_at) / Fold change /veh KRT8 (11758183_x_at) / RFU CNN1 (11734310_a_at) / Fold change /veh CNN1 (11734310_a_at) / RFU VPS37D (11726825_at) / Fold change /veh VPS37D (11726825_at) / RFU C10orf10 (11716522_x_at) / Fold change /veh C10orf10 (11716522_x_at) / RFU KIR2DL2 /// KIR2DL4 /// KIR2DL5A /// KIR2DL5B /// KIR2DS1 /// KIR2DS2 /// KIR2DS3 /// KIR2DS4 /// KIR3DL3 /// KIR3DL3 /// KIR3DS1 (11738374_at) / Fold change /veh KIR2DL2 /// KIR2DL4 /// KIR2DL5A /// KIR2DL5B /// KIR2DS1 /// KIR2DS2 /// KIR2DS3 /// KIR2DS4 /// KIR3DL3 /// KIR3DL3 /// KIR3DS1 (11738374_at) / RFU C1QL1 (11718748_at) / Fold change /veh C1QL1 (11718748_at) / RFU TMPRSS4 (11747572_a_at) / Fold change /veh TMPRSS4 (11747572_a_at) / RFU HAMP (11756126_x_at) / Fold change /veh HAMP (11756126_x_at) / RFU RNFT2 (11725882_a_at) / Fold change /veh RNFT2 (11725882_a_at) / RFU NR4A2 (11747474_a_at) / Fold change /veh NR4A2 (11747474_a_at) / RFU ABCC12 (11746883_a_at) / Fold change /veh ABCC12 (11746883_a_at) / RFU TMEM136 (11760407_x_at) / Fold change /veh TMEM136 (11760407_x_at) / RFU CLDN22 /// WWC2 (11732394_at) / Fold change /veh CLDN22 /// WWC2 (11732394_at) / RFU HLA-DPB1 (11760878_x_at) / Fold change /veh HLA-DPB1 (11760878_x_at) / RFU SPINT1 (11716480_a_at) / Fold change /veh SPINT1 (11716480_a_at) / RFU GAP43 (11754022_s_at) / Fold change /veh GAP43 (11754022_s_at) / RFU A4GNT (11735810_at) / Fold change /veh A4GNT (11735810_at) / RFU PRB3 (11715151_x_at) / Fold change /veh PRB3 (11715151_x_at) / RFU TUBB4B (11761932_at) / Fold change /veh TUBB4B (11761932_at) / RFU CAPN14 (11732068_a_at) / Fold change /veh CAPN14 (11732068_a_at) / RFU TMCC2 (11721928_a_at) / Fold change /veh TMCC2 (11721928_a_at) / RFU IRGQ (11745062_a_at) / Fold change /veh IRGQ (11745062_a_at) / RFU FAM174B (11720279_a_at) / Fold change /veh FAM174B (11720279_a_at) / RFU TMPRSS4 (11748680_a_at) / Fold change /veh TMPRSS4 (11748680_a_at) / RFU FAM212B (11763350_a_at) / Fold change /veh FAM212B (11763350_a_at) / RFU PLEKHG5 (11743358_a_at) / Fold change /veh PLEKHG5 (11743358_a_at) / RFU ZSCAN30 (11745921_a_at) / Fold change /veh ZSCAN30 (11745921_a_at) / RFU CMKLR1 (11741424_a_at) / Fold change /veh CMKLR1 (11741424_a_at) / RFU LOC101060620 /// MAPK8IP1 (11723275_at) / Fold change /veh LOC101060620 /// MAPK8IP1 (11723275_at) / RFU SPTSSB (11747773_x_at) / Fold change /veh SPTSSB (11747773_x_at) / RFU PRSS12 (11739890_at) / Fold change /veh PRSS12 (11739890_at) / RFU BIN1 (11741810_x_at) / Fold change /veh BIN1 (11741810_x_at) / RFU WNT11 (11732464_a_at) / Fold change /veh WNT11 (11732464_a_at) / RFU C10orf10 (11716521_a_at) / Fold change /veh C10orf10 (11716521_a_at) / RFU C5orf56 (11738089_at) / Fold change /veh C5orf56 (11738089_at) / RFU CYB561 (11721691_x_at) / Fold change /veh CYB561 (11721691_x_at) / RFU ANKRD19P (11752326_a_at) / Fold change /veh ANKRD19P (11752326_a_at) / RFU OR2T12 /// OR2T33 /// OR2T8 (11738714_s_at) / Fold change /veh OR2T12 /// OR2T33 /// OR2T8 (11738714_s_at) / RFU VCAN (11748164_a_at) / Fold change /veh VCAN (11748164_a_at) / RFU JSRP1 (11732532_at) / Fold change /veh JSRP1 (11732532_at) / RFU KRTAP10-11 (11738290_x_at) / Fold change /veh KRTAP10-11 (11738290_x_at) / RFU MYO3A (11730013_a_at) / Fold change /veh MYO3A (11730013_a_at) / RFU EBF3 (11725865_a_at) / Fold change /veh EBF3 (11725865_a_at) / RFU CAMK2N1 (11719241_x_at) / Fold change /veh CAMK2N1 (11719241_x_at) / RFU C5orf56 (11738088_a_at) / Fold change /veh C5orf56 (11738088_a_at) / RFU OLFML3 (11715873_a_at) / Fold change /veh OLFML3 (11715873_a_at) / RFU LOC100653217 /// NTM (11731650_a_at) / Fold change /veh LOC100653217 /// NTM (11731650_a_at) / RFU MAPK11 (11762145_a_at) / Fold change /veh MAPK11 (11762145_a_at) / RFU FIZ1 (11724087_x_at) / Fold change /veh FIZ1 (11724087_x_at) / RFU OASL (11726364_x_at) / Fold change /veh OASL (11726364_x_at) / RFU SOX15 (11748057_x_at) / Fold change /veh SOX15 (11748057_x_at) / RFU CD79A (11719716_a_at) / Fold change /veh CD79A (11719716_a_at) / RFU HIST1H1D (11736915_at) / Fold change /veh HIST1H1D (11736915_at) / RFU CASKIN2 (11723855_a_at) / Fold change /veh CASKIN2 (11723855_a_at) / RFU LOC730098 (11760151_x_at) / Fold change /veh LOC730098 (11760151_x_at) / RFU OR4N2 (11742367_at) / Fold change /veh OR4N2 (11742367_at) / RFU PRRT2 (11749266_a_at) / Fold change /veh PRRT2 (11749266_a_at) / RFU SNX32 (11753110_a_at) / Fold change /veh SNX32 (11753110_a_at) / RFU CDHR5 (11726645_a_at) / Fold change /veh CDHR5 (11726645_a_at) / RFU RCAN1 (11760418_a_at) / Fold change /veh RCAN1 (11760418_a_at) / RFU FAM167A (11723789_a_at) / Fold change /veh FAM167A (11723789_a_at) / RFU FAM26E (11764081_at) / Fold change /veh FAM26E (11764081_at) / RFU ISYNA1 (11749810_s_at) / Fold change /veh ISYNA1 (11749810_s_at) / RFU ACY1 (11761880_at) / Fold change /veh ACY1 (11761880_at) / RFU 11764098_at / Fold change /veh 11764098_at / RFU SAMD14 (11745864_x_at) / Fold change /veh SAMD14 (11745864_x_at) / RFU NPB (11741838_a_at) / Fold change /veh NPB (11741838_a_at) / RFU TMPRSS6 (11731388_a_at) / Fold change /veh TMPRSS6 (11731388_a_at) / RFU KRTAP10-2 (11738614_at) / Fold change /veh KRTAP10-2 (11738614_at) / RFU ARHGAP8 /// PRR5-ARHGAP8 (11727945_x_at) / Fold change /veh ARHGAP8 /// PRR5-ARHGAP8 (11727945_x_at) / RFU KRTAP5-7 /// NADSYN1 (11734609_at) / Fold change /veh KRTAP5-7 /// NADSYN1 (11734609_at) / RFU RASL12 (11751679_a_at) / Fold change /veh RASL12 (11751679_a_at) / RFU CDKN2B (11736163_a_at) / Fold change /veh CDKN2B (11736163_a_at) / RFU PRF1 (11729649_at) / Fold change /veh PRF1 (11729649_at) / RFU, ZNF638 /// ZNF638-IT1 / Fold change vs veh, ZNF638 /// ZNF638-IT1 / RFU, PANK3 / Fold change vs veh, PANK3 / RFU, SH3YL1 / Fold change vs veh, SH3YL1 / RFU, ZEB2 / Fold change vs veh, ZEB2 / RFU, NRIP1 / Fold change vs veh, NRIP1 / RFU, PTTG1IP / Fold change vs veh, PTTG1IP / RFU, CAPN2 / Fold change vs veh, CAPN2 / RFU, MED14 / Fold change vs veh, MED14 / RFU, SNORA58 / Fold change vs veh, SNORA58 / RFU, C1orf63 / Fold change vs veh, C1orf63 / RFU, LRRFIP1 / Fold change vs veh, LRRFIP1 / RFU, NDUFAF7 / Fold change vs veh, NDUFAF7 / RFU, SLC12A2 / Fold change vs veh, SLC12A2 / RFU, IBTK / Fold change vs veh, IBTK / RFU, ESF1 / Fold change vs veh, ESF1 / Fold change vs veh, TMEM50B / RFU, TAOK1 / Fold change vs veh, TAOK1 / RFU, ACBD3 / Fold change vs veh, ACBD3 / RFU, TMA16 / Fold change vs veh, TMA16 / RFU, RWDD3 / Fold change vs veh, RWDD3 / RFU, BCAT1 / Fold change vs veh, BCAT1 / RFU, EDEM3 / Fold change vs veh, EDEM3 / RFU, TMEM33 / Fold change vs veh, TMEM33 / RFU, WDR75 / Fold change vs veh, WDR75 / RFU, AHCTF1 / Fold change vs veh, AHCTF1 / RFU, TFRC / Fold change vs veh, TFRC / RFU, ZDHHC17 / Fold change vs veh, ZDHHC17 / RFU, NOM1 / Fold change vs veh, NOM1 / RFU, ARL8B / Fold change vs veh, ARL8B / RFU, ZBTB11 / Fold change vs veh, ZBTB11 / RFU, TAMM41 / Fold change vs veh, TAMM41 / RFU, KIAA1704 /// LOC100996395 / Fold change vs veh, KIAA1704 /// LOC100996395 / RFU, ING1 / Fold change vs veh, ING1 / RFU, TRMT61B / Fold change vs veh, TRMT61B / RFU, FUBP3 / Fold change vs veh, FUBP3 / RFU, TP53 / Fold change vs veh, TP53 / RFU, TNKS2 / Fold change vs veh, TNKS2 / RFU, ZFP14 / Fold change vs veh, ZFP14 / RFU, ACTR2 / Fold change vs veh, ACTR2 / RFU, PPP3R1 / Fold change vs veh, PPP3R1 / RFU, PIK3R1 / Fold change vs veh, PIK3R1 / RFU, HNRNPA1 / Fold change vs veh, HNRNPA1 / RFU, RNF170 / Fold change vs veh, RNF170 / RFU, ZNF28 / Fold change vs veh, ZNF28 / RFU, RNGTT / Fold change vs veh, RNGTT / RFU, OGT / Fold change vs veh, OGT / RFU, BRD1 / Fold change vs veh, BRD1 / RFU, MARS / Fold change vs veh, MARS / RFU, ZNF655 / Fold change vs veh, ZNF655 / RFU, FAHD1 / Fold change vs veh, FAHD1 / RFU, BDP1 / Fold change vs veh, BDP1 / RFU, LRRCC1 / Fold change vs veh, LRRCC1 / RFU, ARID1A / Fold change vs veh, ARID1A / RFU, ZNF146 / Fold change vs veh, ZNF146 / RFU, ZNF330 / Fold change vs veh, ZNF330 / RFU, GPN3 / Fold change vs veh, GPN3 / RFU, C9orf123 / Fold change vs veh, C9orf123 / RFU, N4BP2L2 / Fold change vs veh, N4BP2L2 / RFU, ARFIP1 / Fold change vs veh, ARFIP1 / RFU, FAM179B / Fold change vs veh, FAM179B / RFU, BCL10 / Fold change vs veh, BCL10 / RFU, UHRF1BP1L / Fold change vs veh, UHRF1BP1L / RFU, BET1 / Fold change vs veh, BET1 / RFU, CNOT2 / Fold change vs veh, CNOT2 / RFU, ZNF268 / Fold change vs veh, ZNF268 / Fold change vs veh, ZNF507 / RFU, DGCR2 / Fold change vs veh, DGCR2 / RFU, WDSUB1 / Fold change vs veh, WDSUB1 / Fold change vs veh, HSP90B1 /// MIR3652 / RFU, ADSS / Fold change vs veh, ADSS / RFU, GK / Fold change vs veh, GK / RFU, ZNF148 / Fold change vs veh, ZNF148 / RFU, TAF9 / Fold change vs veh, TAF9 / RFU, SLC1A5 / Fold change vs veh, SLC1A5 / RFU, SLMO2 / Fold change vs veh, SLMO2 / RFU, ABCC4 / Fold change vs veh, ABCC4 / RFU, LOC101060439 /// RAP1B / Fold change vs veh, LOC101060439 /// RAP1B / RFU, RFX7 / Fold change vs veh, RFX7 / RFU, GTPBP10 / Fold change vs veh, GTPBP10 / RFU, CNEP1R1 / Fold change vs veh, CNEP1R1 / RFU, BIVM-ERCC5 /// ERCC5 / Fold change vs veh, BIVM-ERCC5 /// ERCC5 / RFU, ILF3 / Fold change vs veh, ILF3 / RFU 11762660_at / Fold change /veh 11762660_at / RFU VCAN (11757783_s_at) / Fold change /veh VCAN (11757783_s_at) / RFU DDX43 (11728927_at) / Fold change /veh DDX43 (11728927_at) / RFU KRT8 (11758188_x_at) / Fold change /veh KRT8 (11758188_x_at) / RFU NKD1 (11759106_at) / Fold change /veh NKD1 (11759106_at) / RFU SRD5A1 (11742802_a_at) / Fold change /veh SRD5A1 (11742802_a_at) / RFU TPSAB1 /// TPSB2 (11721975_s_at) / Fold change /veh TPSAB1 /// TPSB2 (11721975_s_at) / RFU GSTM3 (11746129_a_at) / Fold change /veh GSTM3 (11746129_a_at) / RFU IL23R (11737362_x_at) / Fold change /veh IL23R (11737362_x_at) / RFU TMEM51 (11727254_a_at) / Fold change /veh TMEM51 (11727254_a_at) / RFU PIWIL2 (11732686_x_at) / Fold change /veh PIWIL2 (11732686_x_at) / RFU ORM1 (11744905_x_at) / Fold change /veh ORM1 (11744905_x_at) / RFU CCDC152 (11743942_at) / Fold change /veh CCDC152 (11743942_at) / RFU ECM1 (11717891_a_at) / Fold change /veh ECM1 (11717891_a_at) / RFU IL23R (11748794_a_at) / Fold change /veh IL23R (11748794_a_at) / RFU TNFAIP8L3 (11732012_x_at) / Fold change /veh TNFAIP8L3 (11732012_x_at) / RFU MBOAT4 (11741988_at) / Fold change /veh MBOAT4 (11741988_at) / RFU 11764193_at / Fold change /veh 11764193_at / RFU TMEM53 (11763286_at) / Fold change /veh TMEM53 (11763286_at) / RFU MAGEB2 (11727129_at) / Fold change /veh MAGEB2 (11727129_at) / RFU TMEM200A (11744735_a_at) / Fold change /veh TMEM200A (11744735_a_at) / RFU CCDC152 (11751479_a_at) / Fold change /veh CCDC152 (11751479_a_at) / RFU FAM211A (11726209_a_at) / Fold change /veh FAM211A (11726209_a_at) / RFU RGS16 (11746705_a_at) / Fold change /veh RGS16 (11746705_a_at) / RFU VCAN (11755009_s_at) / Fold change /veh VCAN (11755009_s_at) / RFU RHOB (11743442_s_at) / Fold change /veh RHOB (11743442_s_at) / RFU RGS16 (11720943_a_at) / Fold change /veh RGS16 (11720943_a_at) / RFU RGS16 (11720944_at) / Fold change /veh RGS16 (11720944_at) / RFU, VPS4B / Fold change vs veh, VPS4B / RFU, CREB1 / Fold change vs veh, CREB1 / RFU, DNAJC13 / Fold change vs veh, DNAJC13 / RFU, GNAQ / Fold change vs veh, GNAQ / RFU, CDK5R1 / Fold change vs veh, CDK5R1 / RFU, ZRANB3 / Fold change vs veh, ZRANB3 / RFU, CUL4A / Fold change vs veh, CUL4A / RFU, CCNY / Fold change vs veh, CCNY / RFU, UFL1 / Fold change vs veh, UFL1 / RFU, COG3 / Fold change vs veh, COG3 / RFU, DIAPH2 / Fold change vs veh, DIAPH2 / RFU, SKA2 / Fold change vs veh, SKA2 / RFU, AFF3 / Fold change vs veh, AFF3 / RFU, LMF1 / Fold change vs veh, LMF1 / RFU, IPO11 / Fold change vs veh, IPO11 / RFU, DFFB / Fold change vs veh, DFFB / RFU, FOXP1 / Fold change vs veh, FOXP1 / RFU, CARD8 / Fold change vs veh, CARD8 / RFU, STRN3 / Fold change vs veh, STRN3 / RFU, ADK / Fold change vs veh, ADK / RFU, RASSF2 / Fold change vs veh, RASSF2 / RFU, WIPF1 / Fold change vs veh, WIPF1 / RFU, LARP1B / Fold change vs veh, LARP1B / RFU, RASA1 / Fold change vs veh, RASA1 / RFU, RB1 / Fold change vs veh, RB1 / RFU, PPFIA1 / Fold change vs veh, PPFIA1 / RFU, MAT2A / Fold change vs veh, MAT2A / RFU, CCT5 / Fold change vs veh, CCT5 / RFU, WDR92 / Fold change vs veh, WDR92 / RFU, CUX1 / Fold change vs veh, CUX1 / RFU, TTC7A / Fold change vs veh, TTC7A / RFU, TMEM135 / Fold change vs veh, TMEM135 / RFU, DEPTOR / Fold change vs veh, DEPTOR / RFU, CPM / Fold change vs veh, CPM / RFU, DNAJB6 / Fold change vs veh, DNAJB6 / RFU, CACNA2D3 / Fold change vs veh, CACNA2D3 / RFU, DTX4 / Fold change vs veh, DTX4 / RFU, TFCP2 / Fold change vs veh, TFCP2 / RFU, GMCL1 /// GMCL1P1 / Fold change vs veh, GMCL1 /// GMCL1P1 / RFU, AEBP2 / Fold change vs veh, AEBP2 / RFU, SNHG1 /// SNORD22 /// SNORD25 /// SNORD26 /// SNORD27 /// SNORD28 /// SNORD29 /// SNORD31 / Fold change vs veh, SNHG1 /// SNORD22 /// SNORD25 /// SNORD26 /// SNORD27 /// SNORD28 /// SNORD29 /// SNORD31 / Fold change (Aza/veh), C12orf56 (ProbeSet 11735607_a_at) / Fold change (ACY-1035/veh), C12orf56 (ProbeSet 11735607_a_at) / Fold change (Aza/veh), FGFR1OP (ProbeSet 11751329_s_at) / Fold change (ACY-1035/veh), FGFR1OP (ProbeSet 11751329_s_at) / Fold change (Aza/veh), VPS36 (ProbeSet 11739960_a_at) / Fold change (ACY-1035/veh), VPS36 (ProbeSet 11739960_a_at) / RFU SYPL1 (11715823_x_at) / Fold change /veh SYPL1 (11715823_x_at) / RFU IGFBP7 (11715501_s_at) / Fold change /veh IGFBP7 (11715501_s_at) / RFU REEP3 (11722064_at) / Fold change /veh REEP3 (11722064_at) / RFU IGLL1 (11728026_x_at) / Fold change /veh IGLL1 (11728026_x_at): dose or concentration left out as unconfirmed", "settings": "ProbeSet 11724526_at; LIST B", "data": [{"smiles": "Nc1ccc(-c2cccs2)cc1NC(=O)c1ccc2c(c1)cc(C1CC1)n2CCN1CCOCC1", "note": "[ACY-1035]", "values": [{"measurement": "Fold change vs veh, FAHD1", "value": 1.05}]}]}
